# Test results published in EP3620052A1, “USE OF PHENOXYPYRIDINYL-SUBSTITUTED (1H-1,2,4-TRIAZOL-1-YL)ALCOHOLS FOR CONTROLLING FUNGICIDAL DISEASES IN MAIZE” (Bayer Aktiengesellschaft, priority 2018, dated 2020).
# Columns and labels:
# Assay type in all cases: in vivo
# maize [1] = assay: Field trials in Brazilian maize: crop response (phytotoxicity) after foliar spray; details: 125 g a.i./ha, two foliar applications, Brazil field trials, assessed 14 - 28 days after second application, 5 trials
# Description: (§1) In 2017/2018 five field trials in maize were conducted in order to study the effect of compounds of formula (I) and standard azole-type fungicides regarding disease control against leaf diseases and crop safety.
# (§2) The trials were done under practical field conditions in Brazil in the Safrinha season with the commercially available maize varieties P30F53 Pioneer, P30F53 RR - Roundup Ready® Pioneer, P30F53YHV Pioneer, DKB 390 Dekalb® and DKB 390 IPRO3 Dekalb®.
# (§3) These trials were conducted in the following federal states in Brazil: Goias, Mato Grosso, Minas Gerais, Parana and Sao Paulo.
# (§4) The tested compounds / reference products, their respective formulation type and rates of application [g a.i./ha] Tab.1: Products, formulations and rates.
# (§5) The products were sprayed twice in sequential, foliar applications at growth stages BBCH EC 39 - 55 and BBCH EC 51 - 69 with a spray interval of about 2 weeks with backpack or bicycle applicators.
# (§6) The water quantity for the applications was 150 l / ha.
# (§7) About 14 - 28 days after the second application crop response and disease control were assessed visually by rating the damaged leaves or plant parts.
# maize [2] = assay: Field trials in Brazilian maize: yield relative to untreated control; details: 125 g a.i./ha, two foliar applications, Brazil, 3 trials; untreated control (43 dt/ha) = 100%
# Description: as §1, §2, §3, §4, §5, §6
# The yield of the untreated control (43 dt/ha) is set to 100% and the yield values for the other treatments are given in percent thereof. Tab. 2: Impact of foliar applications of tested compounds on crop response, disease control and yield.
# Puccinia sorghi = assay: Field trials in Brazilian maize: disease control (Abbott efficacy) after foliar spray; details: 125 g a.i./ha, two foliar applications, Brazil, 2 trials; untreated control 20 % disease severity
# Description: as §1, §2, §3, §4, §5, §6, §7
# (§8) The efficacy against the pathogens listed in table 2 was calculated according to Abbott's formula: Efficacy (%) = (X−Y)/X × 100, [formula] wherein X is the disease severity in the control and Y is the disease severity in the treatment, and is shown in table 2 [%].
# Helminthosporium spp. = assay: as above; details: 125 g a.i./ha, two foliar applications, Brazil, 3 trials; untreated control 22 % disease severity
# Description: as §1, §2, §3, §4, §5, §6, §7, §8
# Puccinia polysora = assay: as above; details: 125 g a.i./ha, two foliar applications, Brazil, 1 trial; untreated control 73 % disease severity
# Description: as §1, §2, §3, §4, §5, §6, §7, §8
# Phaeosphaeria maydis = assay: as above; details: 125 g a.i./ha, two foliar applications, Brazil, 3 trials; untreated control 44 % disease severity
# Description: as §1, §2, §3, §4, §5, §6, §7, §8
# Cercospora zeae maydis = assay: as above; details: 125 g a.i./ha, two foliar applications, Brazil, 2 trials; untreated control 40 % disease severity
# Description: as §1, §2, §3, §4, §5, §6, §7, §8
# maize [3] = assay: Field trials in North American maize: crop response (phytotoxicity) after foliar spray; details: for PTX (%): one foliar application BBCH EC 63 - 65, Canada/USA, 3 trials
# Kabatiella zeae = assay: Field trials in North American maize: disease control (Abbott efficacy) after foliar spray; details: one foliar application, 1 trial, untreated control 17 % disease severity
# Description: (§9) In 2018 eight field trials in maize were conducted in order to study the effect of compounds of formula (I) and standard azole-type fungicides regarding disease control against leaf diseases.
# (§10) The trials were done under practical field conditions in Canada and the USA with the commercially available maize varieties DKC 62-08 Dekalb®, DKC 35-88 RIB RR2 BT Dekalb®, P7958 AM RR2 LL BT (Marc Hutlet Seeds Ltd.), NK1120-3122 RR+GLU+ECB+CRW (Syngenta), P9608AM LL RR2 CRW ECB (Pioneer) and Golden Bantam (conventional variety available from various companies worldwide).
# (§11) These trials were conducted in the following provinces in Canada and federal states in North America: Ontario (Canada) and Georgia, Indiana, Iowa, Michigan, Ohio (all USA).
# (§12) The tested compounds / reference products, their respective formulation type and rates of application [g a.i./ha] Tab.3: Products, formulations and rates.
# (§13) In table 4 details of the formulations of (1-02) used in the different trials are listed. Tab.4: Formulations of (1-02) and a tank mixed surfactant used in different trials.
# (§14) The products were sprayed with one foliar application at growth stage BBCH EC 63 - 65 with a high clearance sprayer or a backpack applicator.
# (§15) The water quantity for the applications varied from 150 to 300 l/ha.
# (§16) About 23 - 35 days after application the disease control was assessed visually by rating the damaged leaves or plant parts.
# (§17) The efficacy against the pathogens listed in table 5 was calculated according to Abbott's formula: Efficacy (%) = (X−Y)/X × 100, [formula] wherein X is the disease severity in the control and Y is the disease severity in the treatment, and is shown in table 5 [%].
# [4] = tested on: Cochliobolus heterostrophus; assay: as above; details: one foliar application, 1 trial, untreated control 12 % disease severity
# Description: as §9, §10, §11, §12, §13, §14, §15, §16, §17
# Setosphaeria turcica = assay: as above; details: one foliar application, 2 trials, untreated control 18 % disease severity
# Description: as §9, §10, §11, §12, §13, §14, §15, §16, §17
# maize [5] = assay: Field trials in North American maize: yield relative to untreated control; details: for Yield (% of Control): one foliar application, 2 trials, untreated control (112 dt/ha) = 100%
# Description: as §9, §10, §11, §12, §13, §14, §15
# The yield of the untreated control (112 dt/ha) is set to 100% and the yield values for the other treatments are given in percent thereof Tab. 5: Impact of foliar applications of tested compounds on disease control.
# [6] = Canada/USA field trials, 60 -125 g a.i./ha
Compound,PTX (%) (maize [1]),Yield (% of Control) (maize [2]),Puccinia sorghi (% efficacy) (Puccinia sorghi),Helminthosporium spp. (% efficacy) (Helminthosporium spp.),Puccinia polysora (% efficacy) (Puccinia polysora),Phaeosphaeria maydis (% efficacy) (Phaeosphaeria maydis),Cercospora zeae maydis (% efficacy) (Cercospora zeae maydis),PTX (%) (maize [3]; 60 g a.i./ha (100 EC or 250 SC)),PTX (%) (maize [3]; 125 g a.i./ha (100 EC or 250 SC)),crop safety (conclusion in words) (maize [3]; [6]),Kabatiella zeae (% efficacy) (Kabatiella zeae; 60 g a.i./ha),Kabatiella zeae (% efficacy) (Kabatiella zeae; 125 g a.i./ha),Cochliobolus heterostrophus (% efficacy) ([4]; 60 g a.i./ha),Cochliobolus heterostrophus (% efficacy) ([4]; 125 g a.i./ha),Setosphaeria turcica (% efficacy) (Setosphaeria turcica; 60 g a.i./ha),Setosphaeria turcica (% efficacy) (Setosphaeria turcica; 125 g a.i./ha),Yield (% of Control) (maize [5]; 60 g a.i./ha),Yield (% of Control) (maize [5]; 125 g a.i./ha),impact on yield (conclusion in words) (maize [5]; [6])
"CC(O)(Cn1cncn1)c1ccc(Oc2ccc(Cl)cc2)nc1C(F)(F)F (centres unmarked) [(I-01), 2-[6-(4-chlorophenoxy)-2-(trifluoromethyl)-3-pyridyl]-1-(1,2,4-triazol-1-yl)propan-2-ol]",0%,123 % of Control,71%,65%,76%,68%,61%,–,–,–,–,–,–,–,–,–,–,–,–
"CC(O)(Cn1cncn1)c1ccc(Oc2ccc(Br)cc2)nc1C(F)(F)F (centres unmarked) [(I-02), 2-[6-(4-bromophenoxy)-2-(trifluoromethyl)-3-pyridyl]-1-(1,2,4-triazol-1-yl)propan-2-ol]",0%,112 % of Control,68%,63%,74%,64%,70%,0%,0%,completely safe on the crop,89%,95%,91%,97%,57%,61%,120 % of Control,115 % of Control,positive impact on yield
